Measurements published in patent US12551459B2, “Combination of kynurenine and antigen presenting cells (APC) as therapeutics and methods for their use in immune modulation” (THE UNIVERSITY OF BRITISH COLUMBIA, priority 2014, dated 2026).

How the values were obtained:
[1] = set-up: species or system mice; settings: NOD (non-obese diabetic), mouse, in vivo, sc
Description: Non-obese diabetic (NOD) mice were intraperitoneal (IP) injected with normal fibroblasts (non-IDO-expressing, 2×10^7 cells per mouse) at the onset of hyperglycemia. Following IP fibroblast injection, the mice were given daily subcutaneous DL-kynurenine injections (20 μg/mouse). The blood glucose levels were monitored twice a week. For the controls, mice were either given only the IP fibroblast injection, or only the daily subcutaneous kynurenine injections as set out above, or were give no treatment at all.
Furthermore, in mouse 1 and mouse 2 (shown in FIG. 1) the subcutaneous kynurenine injections were stopped at 119 and 77 days post IP fibroblast injection, respectively, without a subsequent increase in blood glucose above 10 mM. Kyn injections were done daily because it was cleared from the blood within 8-10 hours. Glucose levels were monitored for up to 120 days, but control groups were sacrificed at earlier time points due to a high level of glucose and prevent the mice from suffering.

[2] = tested on: C3H/HeJ mice induced to develop alopecia areata (AA); assay: Prevention of alopecia areata in C3H/HeJ mice by fibroblast + kynurenine treatment; type: in vivo
Description: Prevention of alopecia areata by combination fibroblast+kynurenine treatment: C3H/HeJ mice were induce to develop alopecia areata (AA) by intradermal injection of lymph node cells from AA affected mice. These mice (5 per group) then received either no treatment, a single-dose injection of 2×10^6 unmodified primary dermal fibroblasts to peritoneal cavity, oral kynurenine (added to drinking water, 100 μg/mL), or a combination therapy consisting of a) single-dose injection of 2×10^6 unmodified primary dermal fibroblasts to peritoneal cavity and b) oral kynurenine (added to drinking water, 100 μg/mL).

[3] = after 120 days, of Total mice per group

| cleared from the blood within [1] [h] | SMILES | hair loss pattern after 120 days ([2]; FIG. 4A) | AA (number of mice with alopecia areata) [2, 3] | Normal (number of mice) [2, 3] | Prevention (%) ([2]; prevention of AA) |
| --- | --- | --- | --- | --- | --- |
| 8 to 10 | Nc1ccccc1C(=O)CC(N)C(=O)O (racemic) [Kyn, DL-kynurenine] | – | – | – | – |
| – | Nc1ccccc1C(=O)CC(N)C(=O)O (centres unmarked) [FS1 alone, kynurenine] | some hair growth | 4 | 1 | 20 |
